Source: PubChem BioAssay AID1919014 (Molecular Pharmacology Branch, DTP, NCI, 2023)

Tested on: NCI-H1341 complex spheroids, percent test/control
Test: Anticancer human tumor NCI-H1341 cell line growth inhibition [AhR];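 note: spheroids exposed to agents for seven days before readout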
Conditions: for IC50: curve of first compound; for viability, T/C: stronger effect = lower value
Summary of the method: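 Spheroids combined tumor cells with HUVEC endothelial cells and human MSCs as stroma. AhR antagonists were paired with standard or investigational drugs, each dosed in half-log steps down from near clinical Cmax, or from 10 microM where Cmax was unknown.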

[1] = second compound 0.1 µM, first compound 0.00316 µM
[2] = second compound 0.1 µM, first compound 0.01 µM
[3] = second compound 0.1 µM, first compound 0.0316 µM
[4] = second compound 0.1 µM, first compound 0.1 µM
[5] = second compound 0.316 µM, first compound 0.00316 µM
[6] = second compound 0.316 µM, first compound 0.01 µM
[7] = second compound 0.316 µM, first compound 0.0316 µM
[8] = second compound 0.316 µM, first compound 0.1 µM
[9] = second compound 1 µM, first compound 0.00316 µM
[10] = second compound 1 µM, first compound 0.01 µM
[11] = second compound 1 µM, first compound 0.0316 µM
[12] = second compound 1 µM, first compound 0.1 µM
[13] = second compound 3.16 µM, first compound 0.00316 µM
[14] = second compound 3.16 µM, first compound 0.01 µM
[15] = second compound 3.16 µM, first compound 0.0316 µM
[16] = second compound 3.16 µM, first compound 0.1 µM
[17] = second compound 10 µM, first compound 0.00316 µM
[18] = second compound 10 µM, first compound 0.01 µM
[19] = second compound 10 µM, first compound 0.0316 µM
[20] = second compound 10 µM, first compound 0.1 µM
[21] = second compound 0.1 µM, first compound 0.316 µM
[22] = second compound 0.1 µM, first compound 1 µM
[23] = second compound 0.1 µM, first compound 3.16 µM
[24] = second compound 0.1 µM, first compound 10 µM
[25] = second compound 0.316 µM, first compound 0.316 µM
[26] = second compound 0.316 µM, first compound 1 µM
[27] = second compound 0.316 µM, first compound 3.16 µM
[28] = second compound 0.316 µM, first compound 10 µM
[29] = second compound 1 µM, first compound 0.316 µM
[30] = second compound 1 µM, first compound 1 µM
[31] = second compound 1 µM, first compound 3.16 µM
[32] = second compound 1 µM, first compound 10 µM
[33] = second compound 3.16 µM, first compound 0.316 µM
[34] = second compound 3.16 µM, first compound 1 µM
[35] = second compound 3.16 µM, first compound 3.16 µM
[36] = second compound 3.16 µM, first compound 10 µM
[37] = second compound 10 µM, first compound 0.316 µM
[38] = second compound 10 µM, first compound 1 µM
[39] = second compound 10 µM, first compound 3.16 µM
[40] = second compound 10 µM, first compound 10 µM

| SMILES | IC50 (second compound 0.1 µM) [nM] | IC50 (second compound 0.316 µM) [nM] | IC50 (second compound 1 µM) [nM] | IC50 (second compound 3.16 µM) [nM] | IC50 (second compound 10 µM) [nM] | viability, T/C [3] [%] | viability, T/C [4] [%] | viability, T/C [7] [%] | viability, T/C [8] [%] | viability, T/C [11] [%] | viability, T/C [12] [%] | viability, T/C [15] [%] | viability, T/C [16] [%] | viability, T/C [19] [%] | viability, T/C [20] [%] | viability, T/C [21] [%] | viability, T/C [22] [%] | viability, T/C [25] [%] | viability, T/C [26] [%] | viability, T/C [29] [%] | further results |
| --- | --- | --- | --- | --- | --- | --- | --- | --- | --- | --- | --- | --- | --- | --- | --- | --- | --- | --- | --- | --- | --- |
| CC[C@@]1(O)C(=O)OCc2c1cc1n(c2=O)Cc2cc3c(CN(C)C)c(O)ccc3nc2-1 + Cc1cncc(-c2nc(NCCc3c[nH]c4ccccc34)c3ncn(C(C)C)c3n2)c1 | 23.6 | 21.4 | 18.7 | 7.91 | < 0.316 | 42.5 | 38.4 | 43.5 | 38.2 | 40.9 | 32.2 | 37.1 | 35.5 | 19.2 | 15.1 | – | – | – | – | – | viability, T/C (second compound 0.1 µM, first compound 0.000316 µM): 90.4%; viability, T/C (second compound 0.1 µM, first compound 0.001 µM): 81.1%; viability, T/C [1]: 69.8%; viability, T/C [2]: 64%; viability, T/C (second compound 0.316 µM, first compound 0.000316 µM): 67.3%; viability, T/C (second compound 0.316 µM, first compound 0.001 µM): 76.8%; viability, T/C [5]: 75.5%; viability, T/C [6]: 63.2%; viability, T/C (second compound 1 µM, first compound 0.000316 µM): 68.8%; viability, T/C (second compound 1 µM, first compound 0.001 µM): 76.1%; viability, T/C [9]: 77.2%; viability, T/C [10]: 60.8%; viability, T/C (second compound 3.16 µM, first compound 0.000316 µM): 72.9%; viability, T/C (second compound 3.16 µM, first compound 0.001 µM): 74.8%; viability, T/C [13]: 66.6%; viability, T/C [14]: 45.7%; viability, T/C (second compound 10 µM, first compound 0.000316 µM): 25.8%; viability, T/C (second compound 10 µM, first compound 0.001 µM): 24.8%; viability, T/C [17]: 24.9%; viability, T/C [18]: 18% |
| COc1cc(C2c3cc4c(cc3C(OC3OC5COC(C)OC5C(O)C3O)C3COC(=O)C23)OCO4)cc(OC)c1O (stereo not given) + Cc1cncc(-c2nc(NCCc3c[nH]c4ccccc34)c3ncn(C(C)C)c3n2)c1 | 416 | 611 | 283 | 233 | < 31.6 | 74.3 | 89.4 | 79.5 | 76.3 | 74.9 | 72.9 | 76.1 | 61.4 | 30.6 | 27.4 | 54.7 | 36.6 | 62.2 | 40.9 | 47.6 | viability, T/C [23]: 34.1%; viability, T/C [24]: 34%; viability, T/C [27]: 35.1%; viability, T/C [28]: 34.2%; viability, T/C [30]: 36%; viability, T/C [31]: 40.5%; viability, T/C [32]: 34.2%; viability, T/C [33]: 41.7%; viability, T/C [34]: 44%; viability, T/C [35]: 35.7%; viability, T/C [36]: 32.7%; viability, T/C [37]: 23.1%; viability, T/C [38]: 23.5%; viability, T/C [39]: 14%; viability, T/C [40]: 14.1% |
| COc1cccc2c1C(=O)c1c(O)c3c(c(O)c1C2=O)CC(O)(C(=O)CO)CC3OC1CC(N)C(O)C(C)O1 (stereo not given) + Cc1cncc(-c2nc(NCCc3c[nH]c4ccccc34)c3ncn(C(C)C)c3n2)c1 | < 31.6 | < 31.6 | < 31.6 | < 31.6 | < 31.6 | 51 | 43 | 43.4 | 39.2 | 39.5 | 37.5 | 38.9 | 35 | 16.8 | 16.6 | 33.4 | 16 | 34.8 | 13 | 28.9 | viability, T/C [23]: 0.94%; viability, T/C [24]: 5.91%; viability, T/C [27]: 0.92%; viability, T/C [28]: 4.49%; viability, T/C [30]: 10.9%; viability, T/C [31]: 1.66%; viability, T/C [32]: 4.68%; viability, T/C [33]: 27.1%; viability, T/C [34]: 5.93%; viability, T/C [35]: 2.35%; viability, T/C [36]: 6.56%; viability, T/C [37]: 14.3%; viability, T/C [38]: 2.4%; viability, T/C [39]: 6.71%; viability, T/C [40]: 5.96% |
| Nc1ncn(C2CC(O)C(CO)O2)c(=O)n1 (stereo not given) + Cc1cncc(-c2nc(NCCc3c[nH]c4ccccc34)c3ncn(C(C)C)c3n2)c1 | 206 | 264 | 80.4 | 481 | < 3.16 | 81.4 | 54.7 | 78.2 | 55.6 | 68 | 45.3 | 69.2 | 70.2 | 21.3 | 19.5 | 48.8 | 28.1 | 52.1 | 27.9 | 45.9 | viability, T/C [1]: 83%; viability, T/C [2]: 89.2%; viability, T/C [5]: 75.5%; viability, T/C [6]: 86.1%; viability, T/C [9]: 73%; viability, T/C [10]: 82.7%; viability, T/C [30]: 33.3%; viability, T/C [13]: 71.4%; viability, T/C [14]: 72%; viability, T/C [33]: 53.7%; viability, T/C [34]: 38%; viability, T/C [17]: 25.7%; viability, T/C [18]: 26.9%; viability, T/C [37]: 20.1%; viability, T/C [38]: 18.9% |
